According to patent US10681909B2, “Herbicidal triazoles” (FMC Corporation, priority 2014, dated 2020):

Legend:
[1] = test system: kochia; experiment: Test D postemergence; format: in vivo, Kochia scoparia; details: scale 0 to 100
Excerpt: (§1) Seeds of plant species selected from bluegrass (annual bluegrass, Poa annua), blackgrass (Alopecurus myosuroides), canarygrass (Phalaris minor), chickweed (common chickweed, Stellaria media), galium (catchweed bedstraw, Galium aparine), bromegrass, down (downy bromegrass, Bromus tectorum), Russian thistle (Salsola kali), field poppy (Papaver rhoeas), field violet (Viola arvensis), foxtail, green (green foxtail, Setaria viridis), deadnettle (henbit deadnettle, Lamium amplexicaule), ryegrass, Ital. (Italian ryegrass, Lolium multiflorum), kochia (Kochia scoparia), lambsquarters (Chenopodium album), oilseed rape (Brassica napus), pigweed (Amaranthus retroflexus), chamomile (scentless chamomile, Matricaria inodora), speedwell (bird's-eye speedwell, Veronica persica), barley, spring (spring barley, Hordeum vulgare), wheat, spring (spring wheat, Triticum aestivum), buckwheat, wild (wild buckwheat, Polygonum convolvulus), wild mustard (Sinapis arvensis), oat, wild (wild oat, Avena fatua), radish, wild (wild radish, Raphanus raphanistrum), […]), barley, winter (winter barley, Hordeum vulgare), and wheat, winter (winter wheat, Triticum aestivum) were planted into a silt loam soil and treated preemergence with test chemicals formulated in a non-phytotoxic solvent mixture which included a surfactant. At the same time, these species were planted in pots containing Sunshine Redi-Earth® planting medium comprising spaghnum peat moss, vermiculite, starter nutrients and dolomitic limestone and treated with postemergence applications of the test chemicals formulated in the same manner. Plants ranged in height from 2 to 18 cm (1- to 4-leaf stage). Treated plants and controls were maintained in a controlled growth environment for 14 to 21 d after which time all species were compared to controls and visually evaluated. […] A dash (-) response means no test result.

[2] = test system: barnyardgrass; experiment: Test C preemergence; format: in vivo, Echinochloa crus-galli; details: for Plant response rating (scale of 0 to 100 where 0 is no effect and 100 is complete control): Barnyardgrass, preemergence; for Barnyardgrass plant response rating (0 to 100): Preemergence, visual rating after 13 to 15 d
Excerpt: (§2) Seeds of plant species selected from blackgrass (Alopecurus myosuroides), ryegrass, Italian (Italian ryegrass, Lolium multiflorum), wheat (winter wheat, Triticum aestivum), galium (catchweed bedstraw, Galium aparine), corn (Zea mays), crabgrass, large (large crabgrass, Digitaria sanguinalis), foxtail, giant, (giant foxtail, Setaria faberii), johnsongrass (Sorghum halepense), lambsquarters (Chenopodium album), morningglory (Ipomoea coccinea), nutsedge, yellow (yellow nutsedge, Cyperus esculentus), pigweed (Amaranthus retroflexus), ragweed (common ragweed, Ambrosia elatior), soybean (Glycine max), barnyardgrass (Echinochloa crus-galli), oilseed rape (Brassica napus), waterhemp (common waterhemp, Amaranthus rudis), and velvetleaf (Abutilon theophrasti) were planted into a blend of loam soil and sand and treated preemergence with test chemicals formulated in a non-phytotoxic solvent mixture which included a surfactant. At the same time, plants selected from these crop and weed species and also chickweed (common chickweed, Stellaria media), oat, wild (wild oat, Avena fatua), and kochia (Kochia scoparia), were planted in pots containing Sunshine Redi-Earth® planting medium comprising spaghnum peat moss, vermiculite, starter nutrients and dolomitic limestone and treated with postemergence applications of test chemicals formulated in the same manner. Plants ranged in height from 2 to 18 cm (1- to 4-leaf stage) for postemergence treatments. […] A dash (-) response means no test result.

[3] = test system: morningglory; experiment: Test C preemergence; format: in vivo, Ipomoea coccinea; details: for Plant response rating (scale of 0 to 100 where 0 is no effect and 100 is complete control): Morningglory, preemergence; for Morningglory plant response rating (0 to 100): Preemergence, visual rating after 13 to 15 d
Excerpt: as §2

[4] = test system: crabgrass, large; experiment: Test A preemergence; format: in vivo, Digitaria sanguinalis; details: Digitaria sanguinalis, pre-emergence, 240 h, 0 to 100 scale (0 no effect, 100 complete control), read-out: Plant response rating, Crabgrass, Large
Procedure, shortened: (§3)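 Test chemicals in a non-phytotoxic solvent with surfactant were applied as a directed soil spray preemergence to seeds sown in loam/sand. Postemergence sprays went to plants 2–10 cm tall at the one- to two-leaf stage. A dash means no result.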

[5] = test system: velvetleaf; experiment: Test C preemergence; format: in vivo, Abutilon theophrasti; details: for Velvetleaf plant response rating (0 to 100): Preemergence, visual rating after 13 to 15 d; for Plant response rating (scale of 0 to 100 where 0 is no effect and 100 is complete control): Velvetleaf, preemergence, 250 g ai/ha
Excerpt: as §2

[6] = test system: field poppy; experiment: Test D postemergence; format: in vivo, Papaver rhoeas; details: scale 0 to 100
Excerpt: as §1

[7] = test system: oilseed rape; experiment: Test D postemergence; format: in vivo, Brassica napus; details: scale 0 to 100
Excerpt: as §1

[8] = test system: lambsquarters; experiment: Test C preemergence; format: in vivo, Chenopodium album; details: for Plant response rating (scale of 0 to 100 where 0 is no effect and 100 is complete control): Lambsquarters, preemergence; for Lambsquarters plant response rating (0 to 100): Preemergence, visual rating after 13 to 15 d
Excerpt: as §2

[9] = test system: foxtail, green; experiment: Test D preemergence; format: in vivo, Setaria viridis; details: for Plant response rating: Foxtail, Green: scale 0 to 100; for Plant response rating (0 to 100), Foxtail, Green: 16 g ai/ha, 0 is no effect, 100 is complete control
Excerpt: as §1

[10] = test system: morningglory; experiment: Test A postemergence; format: in vivo, Ipomoea spp.; details: Ipomoea, post-emergence, 240 h, 0 to 100 scale (0 no effect, 100 complete control), approx. 10 d, read-out: Plant response rating, Morningglory
Procedure, shortened: as §3

[11] = test system: crabgrass, large; experiment: Test C preemergence; format: in vivo, Digitaria sanguinalis; details: for Plant response rating (scale of 0 to 100 where 0 is no effect and 100 is complete control): Crabgrass, Large, preemergence; for Crabgrass, Large plant response rating (0 to 100): Preemergence, visual rating after 13 to 15 d
Excerpt: as §2

Compound | Plant response rating: Kochia ([1]; 31 g ai/ha) | Plant response rating: Kochia ([1]; 62 g ai/ha) | Plant response rating: Kochia ([1]; 125 g ai/ha) | Plant response rating (scale of 0 to 100 where 0 is no effect and 100 is complete control) ([2]; 125 g ai/ha) | Plant response rating (scale of 0 to 100 where 0 is no effect and 100 is complete control) ([2]; 250 g ai/ha) | Barnyardgrass plant response rating (0 to 100) ([2]; 31 g ai/ha) | Barnyardgrass plant response rating (0 to 100) ([2]; 62 g ai/ha) | Plant response rating (scale of 0 to 100 where 0 is no effect and 100 is complete control) ([3]; 125 g ai/ha) | Plant response rating (scale of 0 to 100 where 0 is no effect and 100 is complete control) ([3]; 250 g ai/ha) | Morningglory plant response rating (0 to 100) ([3]; 31 g ai/ha) | Morningglory plant response rating (0 to 100) ([3]; 62 g ai/ha) | Velvetleaf plant response rating (0 to 100) ([5]; 31 g ai/ha) | Velvetleaf plant response rating (0 to 100) ([5]; 62 g ai/ha) | Plant response rating (scale of 0 to 100 where 0 is no effect and 100 is complete control) [5] | Plant response rating: Field Poppy ([6]; 31 g ai/ha) | Plant response rating: Field Poppy ([6]; 62 g ai/ha) | Plant response rating: Field Poppy ([6]; 125 g ai/ha) | Plant response rating: Oilseed Rape ([7]; 31 g ai/ha) | Plant response rating: Oilseed Rape ([7]; 62 g ai/ha) | Plant response rating: Oilseed Rape ([7]; 125 g ai/ha) | further results
CCc1nc(-c2ccc(C(F)(F)F)cc2)nn1Cc1ccnc(C(F)(F)F)c1 [Compound 1, 4-[[5-ethyl-3-[4-(trifluoromethyl)phenyl]-1H-1,2,4-triazol-1-yl]methyl]-2-(trifluoromethyl)pyridine] | 65 | 75 | 80 | 55 | 70 | 10 | 35 | 55 | 90 | 20 | 55 | 15 | 30 | 75 | 70 | 100 | 100 | 70 | 80 | 100 | Plant response rating: Kochia ([1]; 250 g ai/ha): 80; pest or weed control at 125 g/ha ([4]; 125 g ai/ha): 100%; pest or weed control at 500 g/ha ([4]; 500 g ai/ha, approx. 10 d): 100%; Plant response rating: Field Poppy ([6]; 250 g ai/ha): 100; Plant response rating: Oilseed Rape ([7]; 250 g ai/ha): 100; Plant response rating (scale of 0 to 100 where 0 is no effect and 100 is complete control) ([8]; 125 g ai/ha): 98; Plant response rating (scale of 0 to 100 where 0 is no effect and 100 is complete control) ([8]; 250 g ai/ha): 98; Lambsquarters plant response rating (0 to 100) ([8]; 31 g ai/ha): 90; Lambsquarters plant response rating (0 to 100) ([8]; 62 g ai/ha): 98; Plant response rating: Foxtail, Green ([9]; 62 g ai/ha): 100; Plant response rating: Foxtail, Green ([9]; 125 g ai/ha): 100; Plant response rating: Foxtail, Green ([9]; 250 g ai/ha): 100; pest or weed control at 125 g/ha ([10]; 125 g ai/ha): 90%; pest or weed control at 500 g/ha ([10]; 500 g ai/ha): 100%; Plant response rating (scale of 0 to 100 where 0 is no effect and 100 is complete control) ([11]; 125 g ai/ha): 100; Plant response rating (scale of 0 to 100 where 0 is no effect and 100 is complete control) ([11]; 250 g ai/ha): 100; Crabgrass, Large plant response rating (0 to 100) ([11]; 31 g ai/ha): 98; Crabgrass, Large plant response rating (0 to 100) ([11]; 62 g ai/ha): 100
FC(F)(F)COc1nc(-c2ccc(Cl)cc2)nn1Cc1ccnc(C(F)(F)F)c1 [Compound 31] | 85 | 90 | 95 | 90 | 95 | 70 | 80 | 55 | 65 | 25 | 45 | 35 | 55 | 80 | 80 | 98 | 100 | 85 | 90 | 100 | Plant response rating: Kochia ([1]; 16 g ai/ha): 80; Plant response rating: Field Poppy ([6]; 16 g ai/ha): 75; Plant response rating: Oilseed Rape ([7]; 16 g ai/ha): 80; Plant response rating (scale of 0 to 100 where 0 is no effect and 100 is complete control) ([8]; 125 g ai/ha): 100; Plant response rating (scale of 0 to 100 where 0 is no effect and 100 is complete control) ([8]; 250 g ai/ha): 98; Lambsquarters plant response rating (0 to 100) ([8]; 31 g ai/ha): 90; Lambsquarters plant response rating (0 to 100) ([8]; 62 g ai/ha): 100; Plant response rating (0 to 100), Foxtail, Green [9]: 95; Plant response rating: Foxtail, Green ([9]; 62 g ai/ha): 100; Plant response rating: Foxtail, Green ([9]; 125 g ai/ha): 100; Plant response rating (scale of 0 to 100 where 0 is no effect and 100 is complete control) ([11]; 125 g ai/ha): 100; Plant response rating (scale of 0 to 100 where 0 is no effect and 100 is complete control) ([11]; 250 g ai/ha): 100; Crabgrass, Large plant response rating (0 to 100) ([11]; 31 g ai/ha): 98; Crabgrass, Large plant response rating (0 to 100) ([11]; 62 g ai/ha): 98
CCOc1nc(-c2ccc(C(F)(F)F)cc2)nn1Cc1ccnc(C(F)(F)F)c1 [Compound 35, 4-[[5-ethoxy-3-[4-(trifluoromethyl)phenyl]-1H-1,2,4-triazole-1-yl]methyl]-2-(trifluoromethyl)pyridine] | 90 | 90 | 90 | 98 | 100 | 85 | 90 | 80 | 90 | 70 | 60 | 70 | 65 | 90 | 95 | 95 | 100 | 90 | 100 | 100 | Plant response rating: Kochia ([1]; 16 g ai/ha): 90; Plant response rating: Field Poppy ([6]; 16 g ai/ha): 80; Plant response rating: Oilseed Rape ([7]; 16 g ai/ha): 80; Plant response rating (scale of 0 to 100 where 0 is no effect and 100 is complete control) ([8]; 125 g ai/ha): 100; Plant response rating (scale of 0 to 100 where 0 is no effect and 100 is complete control) ([8]; 250 g ai/ha): 98; Lambsquarters plant response rating (0 to 100) ([8]; 31 g ai/ha): 98; Lambsquarters plant response rating (0 to 100) ([8]; 62 g ai/ha): 98; Plant response rating (0 to 100), Foxtail, Green [9]: 70; Plant response rating: Foxtail, Green ([9]; 62 g ai/ha): 100; Plant response rating: Foxtail, Green ([9]; 125 g ai/ha): 100; Plant response rating (scale of 0 to 100 where 0 is no effect and 100 is complete control) ([11]; 125 g ai/ha): 100; Plant response rating (scale of 0 to 100 where 0 is no effect and 100 is complete control) ([11]; 250 g ai/ha): 100; Crabgrass, Large plant response rating (0 to 100) ([11]; 31 g ai/ha): 100; Crabgrass, Large plant response rating (0 to 100) ([11]; 62 g ai/ha): 100
